Assay results from ChEMBL document CHEMBL4373715, “Discovery and Biological Evaluations of Halogenated 2,4-Diphenyl Indeno[1,2-b]pyridinol Derivatives as Potent Topoisomerase IIα-Targeted Chemotherapeutic Agents for Breast Cancer” (J Med Chem, 2019).
Calls of active or inactive are those of the source. The calls are words filed in the database; no cut-off is given here.

What was measured:
[1] = biological target: DNA topoisomerase 2-alpha (Homo sapiens) (UniProt P11388); test: Poison activity at topoisomerase-2 alpha in human T47D cells assessed as stabilization of enzyme-DNA cleavage complex by measuring reduction in topo-2alpha level at 50 uM measured after 2 hrs by Western blot analysis; assay type: cell-based
Chain of DNA topoisomerase 2-alpha (Homo sapiens) (P11388 whole entry): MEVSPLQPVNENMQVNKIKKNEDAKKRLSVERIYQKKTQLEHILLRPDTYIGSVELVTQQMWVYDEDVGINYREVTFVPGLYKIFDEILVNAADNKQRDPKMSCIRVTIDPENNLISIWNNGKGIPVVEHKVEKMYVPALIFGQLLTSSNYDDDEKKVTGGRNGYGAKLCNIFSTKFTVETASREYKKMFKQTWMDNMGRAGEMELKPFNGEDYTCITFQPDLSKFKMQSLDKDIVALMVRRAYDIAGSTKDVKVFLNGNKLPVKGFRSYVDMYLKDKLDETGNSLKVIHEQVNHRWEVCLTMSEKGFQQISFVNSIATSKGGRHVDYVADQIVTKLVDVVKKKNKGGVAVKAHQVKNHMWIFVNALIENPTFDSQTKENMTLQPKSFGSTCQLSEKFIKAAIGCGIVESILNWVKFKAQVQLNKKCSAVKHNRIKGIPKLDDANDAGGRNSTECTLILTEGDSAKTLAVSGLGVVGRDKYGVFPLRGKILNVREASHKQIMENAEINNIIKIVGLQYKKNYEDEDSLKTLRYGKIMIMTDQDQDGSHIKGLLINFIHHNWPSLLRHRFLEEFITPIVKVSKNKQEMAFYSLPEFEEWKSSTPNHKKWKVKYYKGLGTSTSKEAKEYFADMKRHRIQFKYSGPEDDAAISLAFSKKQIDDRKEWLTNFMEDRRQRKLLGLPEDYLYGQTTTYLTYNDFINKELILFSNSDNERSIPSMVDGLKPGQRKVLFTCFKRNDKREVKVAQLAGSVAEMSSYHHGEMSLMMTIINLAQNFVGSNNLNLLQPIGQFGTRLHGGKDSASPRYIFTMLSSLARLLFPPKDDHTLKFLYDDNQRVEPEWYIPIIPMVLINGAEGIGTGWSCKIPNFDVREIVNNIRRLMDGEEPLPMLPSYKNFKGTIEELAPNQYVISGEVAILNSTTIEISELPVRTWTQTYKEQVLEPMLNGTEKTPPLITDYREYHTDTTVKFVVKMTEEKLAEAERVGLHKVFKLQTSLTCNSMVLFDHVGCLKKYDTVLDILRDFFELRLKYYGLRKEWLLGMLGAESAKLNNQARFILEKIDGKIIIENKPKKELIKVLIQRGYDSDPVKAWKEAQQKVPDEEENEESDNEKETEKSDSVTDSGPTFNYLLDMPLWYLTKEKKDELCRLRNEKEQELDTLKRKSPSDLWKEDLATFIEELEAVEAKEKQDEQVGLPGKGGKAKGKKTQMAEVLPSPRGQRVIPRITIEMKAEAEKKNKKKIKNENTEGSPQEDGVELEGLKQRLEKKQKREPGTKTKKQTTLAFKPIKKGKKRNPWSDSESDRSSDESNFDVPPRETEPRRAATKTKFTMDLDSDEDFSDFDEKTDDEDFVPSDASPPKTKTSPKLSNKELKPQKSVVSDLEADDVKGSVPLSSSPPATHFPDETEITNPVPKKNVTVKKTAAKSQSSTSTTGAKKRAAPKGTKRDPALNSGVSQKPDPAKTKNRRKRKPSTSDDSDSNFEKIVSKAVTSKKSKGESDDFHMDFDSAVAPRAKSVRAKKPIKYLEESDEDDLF

[2] = Protein binding in rat plasma assessed as unbound fraction at 1 mM measured immediately by LC-MS/MS analysis; assay type: ADME, cell-free
HCC70 = test: Antiproliferative activity against human HCC70 cells measured after 72 hrs by Ez-cytox assay; assay type: functional, cell-based; conditions: HCC70, 72 h, read-out: IC50
[3] = Toxicity in male ICR mouse assessed as mortality at 50 mg/kg, iv administered as single dose measured daily for 7 days (reference value: 0%); assay type: organism-based; conditions: in vivo
DU-145 = test: Antiproliferative activity against human DU145 cells measured after 72 hrs by EZ-Cytox assay; assay type: functional, cell-based; conditions: DU-145, 72 h
T47D [4] = test: Antiproliferative activity against human T47D cells measured after 72 hrs by EZ-Cytox assay; assay type: functional, cell-based
[5] = Toxicity in female ICR mouse assessed as change in body weight at 50 to 100 mg/kg, iv administered as single dose measured daily for 7 days; assay type: organism-based; conditions: in vivo, 168 h
[6] = Stability in mouse plasma assessed as parent compound remaining at 1 mM measured after 2 hrs by LC-MS/MS analysis; assay type: ADME, cell-free; conditions: 1000 µM
[7] = Protein binding in mouse plasma assessed as unbound fraction at 1 mM measured immediately by LC-MS/MS analysis; assay type: ADME, cell-free
[8] = Stability in mouse plasma assessed as parent compound remaining at 1 mM measured after 0.5 hrs by LC-MS/MS analysis; assay type: ADME, cell-free; conditions: 1000 µM
[9] = Stability in human plasma assessed as parent compound remaining at 1 mM measured after 2 hrs by LC-MS/MS analysis; assay type: ADME, cell-free; conditions: read-out: Stability
MDA-MB-231 [10] = test: Antiproliferative activity against human MDA-MB-231 cells measured after 72 hrs by Ez-cytox assay; assay type: functional, cell-based; conditions: MDA-MB-231, 72 h
MDA-MB-231 [11] = test: Antitumor activity against human MDA-MB-231 cells expressing luciferase xenografted in mouse assessed as tumor growth inhibition at 12 mg/kg, iv administered once daily for 10 days measured on day 4 and 11 by bioluminescent imaging analysis; assay type: functional, organism-based
[12] = Stability in human plasma assessed as parent compound remaining at 1 mM measured after 1 hr by LC-MS/MS analysis; assay type: ADME, cell-free; conditions: read-out: Stability
[13] = Toxicity in female ICR mouse assessed as mortality at 100 mg/kg, iv administered as single dose measured daily for 7 days (reference value: 0%); assay type: organism-based; conditions: in vivo
[14] = Toxicity in female ICR mouse assessed as mortality at 50 mg/kg, iv administered as single dose measured daily for 7 days (reference value: 0%); assay type: organism-based; conditions: in vivo
T47D [15] = test: Induction of apoptosis in human T47D cells assessed as decrease in bcl-2 expression at 10 to 30 uM measured after 24 hrs by Western blot analysis; assay type: functional, cell-based
HCT-15 = test: Antiproliferative activity against human HCT15 cells measured after 72 hrs by EZ-Cytox assay; assay type: functional, cell-based; conditions: HCT-15, 72 h
[16] = Stability in rat plasma assessed as parent compound remaining at 1 mM measured after 0.25 hrs by LC-MS/MS analysis; assay type: ADME, cell-free; conditions: read-out: Stability
[17] = Stability in mouse plasma assessed as parent compound remaining at 1 mM measured after 4 hrs by LC-MS/MS analysis; assay type: ADME, cell-free; conditions: 1000 µM
[18] = Stability in mouse plasma assessed as parent compound remaining at 1 mM measured after 0.25 hrs by LC-MS/MS analysis; assay type: ADME, cell-free; conditions: read-out: Stability
[19] = biological target: DNA topoisomerase 2-alpha (Homo sapiens) (UniProt P11388); test: Inhibition of recombinant human topoisomerase 2alpha-mediated relaxation of supercoiled pBR322 DNA at 100 uM measured after 30 mins by ethidium bromide staining based agarose gel electrophoresis relative to control
MDA-MB-436 = test: Antiproliferative activity against human MDA-MB-436 cells measured after 72 hrs by Ez-cytox assay; assay type: functional, cell-based; conditions: MDA-MB-436, 72 h

Oc1ccc(-c2cc(-c3ccccc3Cl)nc3c2Cc2c(O)cccc2-3)cc1
Activity [1]: Active
fraction unbound at 0 h [2]: 1
IC50 (HCC70): 2080 nM
mortality at 168 h [3]: 0%
IC50 (DU-145): 72 nM
IC50 (T47D [4]): 2.67 nM
Activity [5]: Non-Toxic
Stability [6]: 116.3%
fraction unbound at 0 h [7]: 1
Stability [8]: 117.1%
remaining at 2 h [9]: 100%
IC50 (MDA-MB-231 [10]): 2700 nM
TGI (MDA-MB-231 [11]): Active
remaining at 1 h [12]: 104%
mortality at 168 h [13]: 0%
mortality at 168 h [14]: 0%
Activity (T47D [15]): Active
IC50 (HCT-15): 14 nM
remaining at 0.25 h [16]: 102%
Stability [17]: 130.8%
remaining at 0.25 h [18]: 109%
inhibition [19]: 100%
IC50 (MDA-MB-436): 2640 nM
